Results as given in patent publication US20080113908A1, “Use of CRF receptor agonists for the treatment or Prophylaxis of diseases, for example Neurodegenerative diseases” (SmithKline Beecham plc, priority 2000, published 2008).

What was measured:
GSK-3β = assay: Western blot of serine-9-phosphorylated GSK-3β (FIG. 5); type: cell-based, rat; conditions: compound alone, 2 hours; CRF 10 nM, LY 294002 75 μM, FSK 30 μM
Excerpt: It was thought that CRF receptor agonists might interact with the PI 3-kinase signalling pathway and exert their neuroprotective effect by phosphorylating and inhibiting the protein GSK-3β,which is pro-apoptotic (M. Pap and G. M. Cooper, J. Biol. Chem., 273(32), 19929-19932, 1998; and M. Hetman et al. J. Neurosci., 1st Apr. 2000, 20(7), 2567-2574; discussed hereinabove). In order to confirm this, the level of GSK-3β phosphorylated at serine-9 (e.g. see D. A. E. Cross, Nature, 378, 785-789, 1995) in control cultures of cerebellar granule neurones was measured using Western blots, and compared to the level of phospho-GSK-3β in the presence of CRF as a model CRF receptor agonist and/or in the presence of the PI 3-kinase inhibitor LY 294002. In order to determine whether elevation of cAMP was involved in any effect, the level of phospho-GSK-3β in cultures in the presence of the known cAMP-elevating agent forskolin (FSK, obtainable e.g. from Calbiochem.) with or without LY 294002 present was also measured. The forskolin acts as a benchmark for cAMP-related effects.
The method used was as follows. […]
Phosphorylation of GSK-3β was detected using an antibody to serine-9-phosphorylated GSK-3β (anti-phospho-GSK-3β (Ser9)) available as catalogue no. […]

[1] = test system: cerebellar granule neurons; assay: Delayed addition of CRF after LY 294002, variation of Assay 1 (FIGS. 6A, 6B); type: cell-based, rat
Procedure: FIGS. 6A and 6B show neuronal survival results, using a variation of Assay 1 in which CRF (10 nM) was added at varying times (shown in hours) following LY 294002 (75 μM) addition. Therefore, granule neurons were cultured with the PI 3-kinase inhibitor LY 294002 (75 μM) in the presence of 10 nM CRF, added together with LY 294002 or at different times (shown in hours) following LY 294002 addition. FIG. 6A is the result from one experiment only. […] It appears from FIG. 6A that the neuroprotective effect is sustained when adding CRF at about 1-4 hrs after LY 294002 addition. From FIG. 6B, it appears that the neuroprotective effect is sustained when adding CRF up to 8 hours after LY 294002 addition.

hippocampal neurones = assay: Amyloid-β peptide (25-35) toxicity, survival by counting viable neurons (FIGS. 8, 9); type: cell-based; conditions: Aβ(25-35) 10 μM, CRF 3-100 nM, 3 days
Procedure: In order to test whether CRF receptor agonists protect neurones from death caused by Aβ, the following experiment was conducted (FIGS. 8 and 9). Hippocampal neurons from embryonic day 18 rat were cultured in serum-free medium (neurobasal/B27) for 9 days. The culture methods are described on page 48 of S. D. Skaper et al., J. Neurochem., 2001, 76, 47-55. Cells were then treated with amyloid-β peptide (fragment 25-35) (Sigma, cat. no. A-4559, sequence Gly-Ser-Asn-Lys-Gly-Ala-Ile-Ile-Gly-Leu-Met) at 10 μM plus the indicated CRF receptor agonist at the indicated concentration, in the same culture medium. […] Cell survival was assessed after 3 days, by fixing the cultures and counting microscopically viable neurons. Values are expressed relative to numbers of surviving neurons in untreated cultures (=100).

H-SQEPPISLDLTFHLLREVLEMTKADQLAQQAHNNRKLLDIA-NH2 [CRF]
phospho-GSK-3β level compared to control CN (GSK-3β): increase in basal phospho-GSK-3β
neuroprotective effect with delayed CRF addition ([1]; CRF 10 nM added 10, 24 and 32 hours after LY 294002 75 μM): Only a small neuroprotective effect
neuroprotective effect with delayed CRF addition ([1]; CRF 10 nM added 46 hours after LY 294002 75 μM): no neuroprotection
time of CRF addition after LY 294002 at which neuroprotective effect is sustained (FIG. 6A) ([1]; CRF 10 nM, LY 294002 75 μM, one experiment): 1 to 4 h
time of CRF addition after LY 294002 at which neuroprotective effect is sustained (FIG. 6B) ([1]; CRF 10 nM, LY 294002 75 μM, two experiments combined): up to 8 hours
neuroprotective effect against Aβ toxicity (FIG. 8) (hippocampal neurones): 40-50%
